Measured values from patent US8247211B2, “Glycopeptide antibiotics” (American Cyanamid Company, priority 2001, dated 2012).
In brackets after ≈: the same amount, converted by molar mass.

Key:
[1] = Anatomic pathology (heart and kidney histopathology) in mice; assay type: in vivo, CD-1 mice; settings: 20 mg/kg intravenously daily for 9 days, microscopic histopathology on day 10
Outline: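 Juvenile CD-1 mice (20 days old; 5 vehicle, 5 treated) received glycopeptide antibiotic 20 mg/kg i.v. daily for 9 days. Necropsied tissues formalin-fixed, paraffin-embedded, H&E stained and examined microscopically; findings graded slight to severe versus controls.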

[2] = test system: Staphylococcus aureus-SMITH (GC 4543); assay: Acute lethal infection in mice (ED50); assay type: in vivo; settings: female CD-1 mice, intraperitoneal challenge, intravenous dose 30 min. after infection, 7 day survival ratios
Outline: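 Median effective dose is calculated from 7-day survival ratios pooled across three separate tests. Mice (female CD-1) receive an intraperitoneal bacterial challenge in broth or hog gastric mucin, then intravenous drug 30 min later, five animals per dose level.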

[3] = assay type: in vivo; settings: mice, 20 mg/kg intravenously daily for 9 days, serum on day 10
Method: 20-day-old CD-1 mice were divided into a vehicle control group (5 mice) and a treatment group (5 mice). Samples of glycopeptide antibiotics were administered at 20 mg/kg intravenously daily for 9 days. Animals were necropsied on day 10 Sera were analyzed for BUN (blood urea nitrogen), creatinine, AST (aspartic aminotransferase), and ALT (alanine aminotransferase) by routine, standard, automated methods using an Hitachi 747 chemistry analyzer.

[4] = test system: Staphylococcus sp.; assay: In vitro antibacterial evaluation: minimum inhibitory concentration (MIC), broth dilution method; assay type: cell-based; settings: broth dilution, 18 hours at 35° C.
Outline: (§1)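 An MIC is reported for each organism as the least concentration giving inhibition, using broth dilution over 64-0.06 μg/mL with a 5×10^5 CFU/mL inoculum.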

[5] = test system: Escherichia coli; assay: as above; assay type: cell-based; settings: strain GC 4560
Outline: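 Following NCCLS approved standard M7-A2, compounds are serially diluted from 64 to 0.06 μg/mL in Muller-Hinton II […] and inoculated at 5×10^5 CFU/mL; the MIC is the minimum concentration at which growth is inhibited.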

[6] = test system: Streptococcus sp.; assay: as above; assay type: cell-based
Outline: as §1

[7] = test system: Enterococcus sp.; assay: as above; assay type: cell-based
Outline: as §1

CC(c1ccccc1)C1NC(=O)CNC(=O)C(CO)NC(=O)C(C(O)C2CN(Cc3ccc(-c4ccccc4)cc3)C(=N)N2C2OC(CO)C(O)C(O)C2O)NC(=O)C(C(O)C2CNC(=NCc3ccc(-c4ccccc4)cc3)N2Cc2ccc(-c3ccccc3)cc2)NC(=O)C(Cc2ccc(OC3OC(CO)C(OC4OC(CO)C(O)C(O)C4O)C(O)C3O)cc2)NC1=O (stereo not drawn) [Example 66]
Anatomical Pathology (Day 10), Heart [1]: 0
Anatomical Pathology (Day 10), Kidney [1]: 0
median effective dose (ED50), Staphylococcus aureus-SMITH (GC 4543) [2]: >8
Clinical Chemistry (Day 10) % of Control, ALT [3]: 182%
Clinical Chemistry (Day 10) % of Control, AST [3]: 147%
MIC Coagulase Negative Staphylococcus (GC 4547) [4]: 4 mg/L (≈ 2.23 µM)
MIC Coagulase Negative Staphylococcus (GC 4548) [4]: 8 mg/L (≈ 4.46 µM)
MIC Coagulase Negative Staphylococcus (GC 4549) [4]: 4 mg/L (≈ 2.23 µM)
MIC Coagulase Negative Staphylococcus (GC 4551) [4]: 8 mg/L (≈ 4.46 µM)
MIC Coagulase Negative Staphylococcus (GC 6257) [4]: 4 mg/L (≈ 2.23 µM)
MIC Staphylococcus aureus (ATCC 29213) [4]: 8 mg/L (≈ 4.46 µM)
MIC Staphylococcus aureus (GC 1131) [4]: 16 mg/L (≈ 8.92 µM)
MIC Staphylococcus aureus (GC 3051) [4]: 8 mg/L (≈ 4.46 µM)
MIC Staphylococcus aureus (GC 3053) [4]: 8 mg/L (≈ 4.46 µM)
MIC Staphylococcus aureus (GC 4541) [4]: 8 mg/L (≈ 4.46 µM)
MIC Staphylococcus aureus (GC 4542) [4]: 8 mg/L (≈ 4.46 µM)
MIC Staphylococcus aureus (GC 4544) [4]: 8 mg/L (≈ 4.46 µM)
MIC Staphylococcus aureus (GC 4545) [4]: 4 mg/L (≈ 2.23 µM)
MIC Staphylococcus aureus SMITH (GC 4543) [4]: 8 mg/L (≈ 4.46 µM)
MIC Staphylococcus haemolyticus (GC 4546) [4]: 4 mg/L (≈ 2.23 µM)
MIC Staphylococcus aureus (ATCC 29213) ([4]; strain ATCC 29213): 8 mg/L (≈ 4.46 µM)
MIC Staphylococcus aureus (GC 1131) ([4]; strain GC 1131): 16 mg/L (≈ 8.92 µM)
MIC Staphylococcus aureus (GC 3051) ([4]; strain GC 3051): 8 mg/L (≈ 4.46 µM)
MIC Staphylococcus aureus (GC 3053) ([4]; strain GC 3053): 8 mg/L (≈ 4.46 µM)
MIC Staphylococcus aureus (GC 4541) ([4]; strain GC 4541): 8 mg/L (≈ 4.46 µM)
MIC Staphylococcus aureus (GC 4542) ([4]; strain GC 4542): 8 mg/L (≈ 4.46 µM)
MIC Staphylococcus aureus (GC 4544) ([4]; strain GC 4544): 8 mg/L (≈ 4.46 µM)
MIC Staphylococcus aureus (GC 4545) ([4]; strain GC 4545): 4 mg/L (≈ 2.23 µM)
MIC Coagulase Negative Staphylococcus (GC 4547) ([4]; strain GC 4547): 4 mg/L (≈ 2.23 µM)
MIC Coagulase Negative Staphylococcus (GC 4548) ([4]; strain GC 4548): 8 mg/L (≈ 4.46 µM)
MIC Coagulase Negative Staphylococcus (GC 4549) ([4]; strain GC 4549): 4 mg/L (≈ 2.23 µM)
MIC Coagulase Negative Staphylococcus (GC 4551) ([4]; strain GC 4551): 8 mg/L (≈ 4.46 µM)
MIC Coagulase Negative Staphylococcus (GC 6257) ([4]; strain GC 6257): 4 mg/L (≈ 2.23 µM)
MIC Staphylococcus aureus-SMITH (GC 4543) ([4]; strain SMITH GC 4543): 8 mg/L (≈ 4.46 µM)
MIC Escherichia coli (GC 4560) [5]: 4 mg/L (≈ 2.23 µM)
MIC Streptococcus agalactiae (GC 4564) ([6]; Streptococcus agalactiae (GC 4564), broth dilution, 18 hours at 35° C.): 32 mg/L (≈ 17.8 µM)
MIC Streptococcus pneumoniae (ATCC 6301) ([6]; Streptococcus pneumoniae (ATCC 6301), broth dilution, 18 hours at 35° C.): 32 mg/L (≈ 17.8 µM)
MIC Streptococcus pneumoniae (GC 1894) ([6]; Streptococcus pneumoniae (GC 1894), broth dilution, 18 hours at 35° C.): 32 mg/L (≈ 17.8 µM)
MIC Streptococcus pneumoniae (GC 4565) ([6]; Streptococcus pneumoniae (GC 4565), broth dilution, 18 hours at 35° C.): 64 mg/L (≈ 35.7 µM)
MIC Streptococcus pyogenes (GC 4563) ([6]; Streptococcus pyogenes (GC 4563), broth dilution, 18 hours at 35° C.): 16 mg/L (≈ 8.92 µM)
MIC Streptococcus pneumoniae (ATCC 6301) ([6]; strain ATCC 6301): 32 mg/L (≈ 17.8 µM)
MIC Streptococcus pneumoniae (GC 1894) ([6]; strain GC 1894): 32 mg/L (≈ 17.8 µM)
MIC Streptococcus pyogenes (GC 4563) ([6]; strain GC 4563): 16 mg/L (≈ 8.92 µM)
MIC Streptococcus agalactiae (GC 4564) ([6]; strain GC 4564): 32 mg/L (≈ 17.8 µM)
MIC Streptococcus pneumoniae (GC 4565) ([6]; strain GC 4565): 64 mg/L (≈ 35.7 µM)
MIC Enterococcus avium (GC 4558) ([7]; Enterococcus avium (GC 4558), broth dilution, 18 hours at 35° C.): 4 mg/L (≈ 2.23 µM)
MIC Enterococcus faecalis (ATCC 29212) ([7]; Enterococcus faecalis (ATCC 29212), broth dilution, 18 hours at 35° C.): 16 mg/L (≈ 8.92 µM)
MIC Enterococcus faecalis (GC 2242) ([7]; Enterococcus faecalis (GC 2242), broth dilution, 18 hours at 35° C.): 16 mg/L (≈ 8.92 µM)
MIC Enterococcus faecalis (GC 2691) ([7]; Enterococcus faecalis (GC 2691), broth dilution, 18 hours at 35° C.): 32 mg/L (≈ 17.8 µM)
MIC Enterococcus faecalis (GC 3059) ([7]; Enterococcus faecalis (GC 3059), broth dilution, 18 hours at 35° C.): 32 mg/L (≈ 17.8 µM)
MIC Enterococcus faecalis (GC 4552) ([7]; Enterococcus faecalis (GC 4552), broth dilution, 18 hours at 35° C.): 32 mg/L (≈ 17.8 µM)
MIC Enterococcus faecalis (GC 4553) ([7]; Enterococcus faecalis (GC 4553), broth dilution, 18 hours at 35° C.): 8 mg/L (≈ 4.46 µM)
MIC Enterococcus faecalis (GC 4554) ([7]; Enterococcus faecalis (GC 4554), broth dilution, 18 hours at 35° C.): 64 mg/L (≈ 35.7 µM)
MIC Enterococcus faecalis (GC 6189) ([7]; Enterococcus faecalis (GC 6189), broth dilution, 18 hours at 35° C.): 32 mg/L (≈ 17.8 µM)
MIC Enterococcus faecium (GC 2243) ([7]; Enterococcus faecium (GC 2243), broth dilution, 18 hours at 35° C.): 8 mg/L (≈ 4.46 µM)
MIC Enterococcus faecium (GC 4556) ([7]; Enterococcus faecium (GC 4556), broth dilution, 18 hours at 35° C.): 32 mg/L (≈ 17.8 µM)
MIC Enterococcus faecium (GC 4557) ([7]; Enterococcus faecium (GC 4557), broth dilution, 18 hours at 35° C.): 4 mg/L (≈ 2.23 µM)
MIC Enterococcus faecalis (ATCC 29212) ([7]; strain ATCC 29212): 16 mg/L (≈ 8.92 µM)
MIC Enterococcus faecalis (GC 2242) ([7]; strain GC 2242): 16 mg/L (≈ 8.92 µM)
MIC Enterococcus faecium (GC 2243) ([7]; strain GC 2243): 8 mg/L (≈ 4.46 µM)
MIC Enterococcus faecalis (GC 2691) ([7]; strain GC 2691): 32 mg/L (≈ 17.8 µM)
MIC Enterococcus faecalis (GC 3059) ([7]; strain GC 3059): 32 mg/L (≈ 17.8 µM)
MIC Enterococcus faecalis (GC 4552) ([7]; strain GC 4552): 32 mg/L (≈ 17.8 µM)
MIC Enterococcus faecalis (GC 4553) ([7]; strain GC 4553): 8 mg/L (≈ 4.46 µM)
MIC Enterococcus faecalis (GC 4554) ([7]; strain GC 4554): 64 mg/L (≈ 35.7 µM)
MIC Enterococcus faecium (GC 4556) ([7]; strain GC 4556): 32 mg/L (≈ 17.8 µM)
MIC Enterococcus faecium (GC 4557) ([7]; strain GC 4557): 4 mg/L (≈ 2.23 µM)
MIC Enterococcus avium (GC 4558) ([7]; strain GC 4558): 4 mg/L (≈ 2.23 µM)
MIC Enterococcus faecalis (GC 6189) ([7]; strain GC 6189): 32 mg/L (≈ 17.8 µM)
